One experiment deals with T1, MsMDH ([Mannheimia] succiniciproducens, UniProt Q65T37).
T1 construct: gene mdh; full length, C-terminal 6xHis (pET30a), expressed in E. coli BL21(DE3), Ni-NTA, ion exchange and size exclusion
T1 sequence (Q65T37 1-312): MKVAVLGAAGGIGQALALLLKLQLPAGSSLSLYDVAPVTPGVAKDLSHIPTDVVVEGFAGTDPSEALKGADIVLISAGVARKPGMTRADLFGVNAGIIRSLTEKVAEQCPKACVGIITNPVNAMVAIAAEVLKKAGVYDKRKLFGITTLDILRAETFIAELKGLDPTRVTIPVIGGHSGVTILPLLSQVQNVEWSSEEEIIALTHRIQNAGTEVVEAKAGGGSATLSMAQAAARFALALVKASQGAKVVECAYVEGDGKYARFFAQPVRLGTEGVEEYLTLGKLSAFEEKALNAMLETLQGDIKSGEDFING
The experiment can be described thus: NADH oxidation at […] nm; modified Briggs-Haldane fit. The experiment is classed as biochemical. Conditions: pH 7.0, 0.1 M Tris-HCl, NADH co-substrate, room temperature; uncompetitive substrate inhibition.

A further experiment deals with T2, CgMDH (Corynebacterium glutamicum, UniProt Q8NN33).
T2 construct: gene mdh; full length, C-terminal 6xHis (pET30a), expressed in E. coli BL21(DE3), Ni-NTA, ion exchange and size exclusion
T2 sequence (Q8NN33 whole entry): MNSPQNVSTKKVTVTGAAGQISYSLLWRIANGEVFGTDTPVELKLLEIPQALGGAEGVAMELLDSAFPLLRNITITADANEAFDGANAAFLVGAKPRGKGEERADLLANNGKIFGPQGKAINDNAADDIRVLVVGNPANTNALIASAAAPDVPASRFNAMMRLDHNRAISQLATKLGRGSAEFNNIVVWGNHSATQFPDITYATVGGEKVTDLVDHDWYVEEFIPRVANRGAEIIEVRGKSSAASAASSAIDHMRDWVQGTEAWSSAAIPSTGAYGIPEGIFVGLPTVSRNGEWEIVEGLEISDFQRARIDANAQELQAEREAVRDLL
The description is as above. The experiment is classed as biochemical. Conditions: pH 7.0, 0.1 M Tris-HCl, NADH co-substrate, room temperature; substrate inhibition.

On to `O=C(O)CC(=O)C(=O)O` [oxaloacetate], for which the “MsMDH / ki” value at MsMDH came out at 47.3 ± 22.1 µM. Further, the “CgMDH / ki” value on CgMDH is 500.0 ± 114.1 µM.
